Reference: article PMC3793852 (Journal of medicinal chemistry, 2013)

Legend:
[1] = test system: L1210 (ATCC CCL-219) mouse lymphocytic leukemia cells; assay: Cell growth inhibition assay; format: cell-based; settings: for fold less active than duocarmycin SA (loss in activity): L1210, relative to duocarmycin SA
[2] = PAMPA assay; format: in vitro ADME; settings: for Papp at 5 h, 1 μM: pH 7.4

Structure (SMILES)	fold less active than duocarmycin SA (loss in activity) [1]	Papp at 5 h, 1 μM [2]	fold reduction in permeability relative to 2 ([2]; relative to 2)	IC50 ([1]; Mus musculus, L1210, read-out: –log IC50, cell growth inhibition (converted))
COCCOc1cc2cc(C(=O)N3C[C@@H](CCl)c4c3cc(O)c3[nH]c(C(=O)OC)cc43)[nH]c2c(OCCOC)c1OCCOC [10a]	approximately 5 fold			
COCCOCCOCCOCCOCCOc1cc2cc(C(=O)N3C[C@@H](CCl)c4c3cc(O)c3[nH]c(C(=O)OC)cc43)[nH]c2c(OCCOCCOCCOCCOCCOC)c1OCCOCCOCCOCCOCCOC [10e]		0.11 ×10⁻⁶ cm/s	85 fold	398 nM
COCCOc1c(OC)cc2cc(C(=O)N3C[C@@H](CCl)c4c3cc(O)c3[nH]c(C(=O)OC)cc43)[nH]c2c1OC [15a]	approximately 2 fold	4 ×10⁻⁶ cm/s		
COCCOCCOCCOCCOCCOc1c(OC)cc2cc(C(=O)N3C[C@@H](CCl)c4c3cc(O)c3[nH]c(C(=O)OC)cc43)[nH]c2c1OC [15e]	30 fold	2.1 ×10⁻⁶ cm/s		
COC(=O)c1cc2c([nH]1)C(=O)C=C1N(C(=O)c3cc4cc(OC)c(OC)c(OC)c4[nH]3)CC3CC123 (stereo not drawn) [compound 2, duocarmycin SA, reference compound]		9.5 ×10⁻⁶ cm/s		
